Experimental data: patent publication US12054486B2, “Pyridine derivatives and their use as sodium channel activators” (Xenon Pharmaceuticals Inc., priority 2021, dated 2024)
pEC50: −log10 of the molar value. Structures can show the parent of a compound that is named as a salt.

biological target: sodium channel isoforms of interest stably expressed in Human Embryonic Kidney Cells (voltage-gated sodium channel, particularly NaV1.1) (Homo sapiens, UniProt P35498); test: automated planar patch clamp assay of sodium channel gating (area under the sodium current trace); type: cell-based; details: HEK cells, voltage step from −120 mV to 0 mV, increasing concentrations
From the text: A typical assay described in Crestey, F. et al., ACS Chem Neurosci (2015), Vol. 6, pp. 1302-1308, AA43279 (Frederiksen, K. et al., Eur J Neurosci (2017), Vol. 46, pp. 1887-1896) and Lu AE98134 (von Schoubyea, N. L. et al., Neurosci Lett (2018), Vol. 662, pp. 29-35) employs the use of automated planar patch clamp techniques to study the effects of the chemical agent on the gating of sodium channels. The sodium channel isoforms of interest are stably expressed in Human Embryonic Kidney Cells and the currents that flow through those channels in response to a depolarizing voltage clamp step from −120 mV to 0 mV are measured in the presence of increasing concentrations of the chemical agents. The area under the sodium current trace which correlates to the magnitude of sodium flux through the cell membrane is used to quantify the effects on gating of the channels. Other parameters that are measured in the assay include the peak current, time constant of open state inactivation and the voltage dependence of steady state inactivation properties. The concentration responses are used to determine potency of each chemical agents effects on modulating the sodium channel isoform gating. Such techniques are known to those skilled in the art, and may be developed, using current technologies, into low or medium throughput assays for evaluating compounds for their ability to modulate sodium channel behaviour.
As disclosed above, typical assays for testing compounds of the disclosure are known, for example as disclosed in Crestey, F. et al., ACS Chem Neurosci (2015), Vol. 6, pp. 1302-1308, AA43279 (Frederiksen, K. et al., Eur J Neurosci (2017), Vol. 46, pp. 1887-1896) and Lu AE98134 (von Schoubyea, N. L. et al., Neurosci Lett (2018), Vol. 662, pp. 29-35) which employs the use of automated planar patch clamp techniques to study the effects of the chemical agent on the gating of sodium channels. The sodium channel isoforms of interest are stably expressed in Human Embryonic Kidney Cells and the currents that flow through those channels in response to a depolarizing voltage clamp step from −120 mV to 0 mV are measured in the presence of increasing concentrations of the chemical agents. The area under the sodium current trace which correlates to the magnitude of sodium flux through the cell membrane is used to quantify the effects on gating of the channels. Other parameters that are measured in the assay include the peak current, time constant of open state inactivation and the voltage dependence of steady state inactivation properties. The concentration responses are used to determine potency of each chemical agents effects on modulating the sodium channel isoform gating.

**Q.** What does the source list for `CC(C)c1ccc(-c2nnc(-c3c(-c4ccccc4)ccnc3N3CC[C@H](F)C3)o2)cc1` [Example 30, (S)-2-(2-(3-fluoropyrrolidin-1-yl)-4-phenylpyridin-3-yl)-5-(4-isopropylphenyl)-1,3,4-oxadiazole]?
**A.** pEC50: 5.00 to 6.00; Empirical Emax: + (+ indicates a value less than 2.0 μM)

**Q.** What does the source list for `CC(C)(C)c1ccc2nc(-c3c(-c4ccccc4)ncnc3N3CCCC3)[nH]c2c1` [Example 31, 6-(tert-butyl)-2-(4-phenyl-6-(pyrrolidin-1-yl)pyrimidin-5-yl)-1H-benzo[d]imidazole]?
**A.** pEC50: 5.00 to 6.00; Empirical Emax: +++ (+++ indicates a value from 5.0 up to 7.5 μM)

**Q.** With `F[C@H]1CCN(c2nccc(-c3ccccc3)c2-c2nnn[nH]2)C1` [Example 32, (S)-2-(3-fluoropyrrolidin-1-yl)-4-phenyl-3-(1H-tetrazol-5-yl)pyridine] as the compound, how does the pEC50 read?
**A.** > 6.00

**Q.** What about the “Empirical Emax” value of the same compound?
**A.** + (+ indicates a value less than 2.0 μM)

**Q.** What does the source list for `Cc1nc(-c2c(-c3ccccc3)ccnc2N2CC[C@H](F)C2)[nH]c1C(F)(F)F` [Example 33, (S)-2-(3-fluoropyrrolidin-1-yl)-3-(4-methyl-5-(trifluoromethyl)-1H-imidazol-2-yl)-4-phenylpyridine]?
**A.** pEC50: 4.30 to 5.00; Empirical Emax: ++ (++ indicates a value from 2.0 up to 5.0 μM)

**Q.** With `CC(C)(C)OC(=O)N1CCc2nc(-c3c(-c4ccccc4)ccnc3N3CC[C@H](F)C3)[nH]c2C1` [Example 34, Tert-Butyl (S)-2-(2-(3-fluoropyrrolidin-1-yl)-4-phenylpyridin-3-yl)-3,4,6,7-tetrahydro-5H-imidazo[4,5-c]pyridine-5-carboxylate] as the compound, how does the pEC50 read?
**A.** 5.00 to 6.00

**Q.** And the “Empirical Emax” value?
**A.** +++ (+++ indicates a value from 5.0 up to 7.5 μM)

**Q.** Which results are given for `F[C@H]1CCN(c2nccc(-c3ccccc3)c2-c2nc3c([nH]2)CNCC3)C1` [Example 35, (S)-2-(2-(3-fluoropyrrolidin-1-yl)-4-phenylpyridin-3-yl)-4,5,6,7-tetrahydro-3H-imidazo[4,5-c]pyridine 2,2,2-trifluoroacetic Acid Salt (Free Acid)]?
**A.** pEC50: ≤ 4.30; Empirical Emax: + (+ indicates a value less than 2.0 μM)

**Q.** Which results are given for `CN1CCc2nc(-c3c(-c4ccccc4)ccnc3N3CC[C@H](F)C3)[nH]c2C1` [Example 36, (S)-2-(2-(3-fluoropyrrolidin-1-yl)-4-phenylpyridin-3-yl)-5-methyl-4,5,6,7-tetrahydro-3H-imidazo[4,5-c]pyridine]?
**A.** pEC50: 4.30 to 5.00; Empirical Emax: + (+ indicates a value less than 2.0 μM)

**Q.** How did the pEC50 turn out when `CC(=O)N1CCc2nc(-c3c(-c4ccccc4)ccnc3N3CC[C@H](F)C3)[nH]c2C1` [Example 37, (S)-1-(2-(2-(3-fluoropyrrolidin-1-yl)-4-phenylpyridin-3-yl)-3,4,6,7-tetrahydro-5H-imidazo[4,5-c]pyridin-5-yl)ethan-1-one] was run?
**A.** 4.30 to 5.00

**Q.** How did the pEC50 turn out when `CC(C)N1CCc2nc(-c3c(-c4ccccc4)ccnc3N3CC[C@H](F)C3)[nH]c2C1` [Example 38, (S)-2-(2-(3-fluoropyrrolidin-1-yl)-4-phenylpyridin-3-yl)-5-isopropyl-4,5,6,7-tetrahydro-3H-imidazo[4,5-c]pyridine] was run?
**A.** ≤ 4.30

**Q.** What about the “Empirical Emax” value of the same compound?
**A.** + (+ indicates a value less than 2.0 μM)

**Q.** What does the source list for `F[C@H]1CCN(c2nccc(-c3ccccc3)c2-c2nc3c([nH]2)CN(C2COC2)CC3)C1` [Example 39, (S)-2-(2-(3-fluoropyrrolidin-1-yl)-4-phenylpyridin-3-yl)-5-(oxetan-3-yl)-4,5,6,7-tetrahydro-3H-imidazo[4,5-c]pyridine]?
**A.** pEC50: 4.30 to 5.00; Empirical Emax: ++ (++ indicates a value from 2.0 up to 5.0 μM)

**Q.** How did the pEC50 turn out when `CCOC(=O)N1CCc2nc(-c3c(-c4ccccc4)ccnc3N3CC[C@H](F)C3)n(C(=O)OCC)c2C1` [Example 40, diethyl (S)-2-(2-(3-fluoropyrrolidin-1-yl)-4-phenylpyridin-3-yl)-6,7-dihydro-3H-imidazo[4,5-c]pyridine-3,5(4H)-dicarboxylate] was run?
**A.** 5.00 to 6.00

**Q.** What about the “Empirical Emax” value of the same compound?
**A.** +++ (+++ indicates a value from 5.0 up to 7.5 μM)

**Q.** With `CC(C)C(=O)N1CCc2nc(-c3c(-c4ccccc4)ccnc3N3CC[C@H](F)C3)[nH]c2C1` [Example 41, (S)-1-(2-(2-(3-fluoropyrrolidin-1-yl)-4-phenylpyridin-3-yl)-3,4,6,7-tetrahydro-5H-imidazo[4,5-c]pyridin-5-yl)-2-methylpropan-1-one] as the compound, how does the pEC50 read?
**A.** ≤ 4.30

**Q.** What about the “Empirical Emax” value of the same compound?
**A.** + (+ indicates a value less than 2.0 μM)

**Q.** With `F[C@H]1CCN(c2nccc(-c3ccccc3)c2-c2nc3c([nH]2)CN(Cc2ccccc2)CC3)C1` [Example 42, (S)-5-benzyl-2-(2-(3-fluoropyrrolidin-1-yl)-4-phenylpyridin-3-yl)-4,5,6,7-tetrahydro-3H-imidazo[4,5-c]pyridine] as the compound, how does the pEC50 read?
**A.** > 6.00

**Q.** And the “Empirical Emax” value?
**A.** ++ (++ indicates a value from 2.0 up to 5.0 μM)

**Q.** With `FC1(F)CCN(c2nccc(-c3ccccc3)c2-c2nc3c([nH]2)COCC3)C1` [Example 43, 2-(2-(3,3-difluoropyrrolidin-1-yl)-4-phenylpyridin-3-yl)-3,4,6,7-tetrahydropyrano[3,4-d]imidazole] as the compound, how does the pEC50 read?
**A.** > 6.00

**Q.** What about the “Empirical Emax” value of the same compound?
**A.** +++ (+++ indicates a value from 5.0 up to 7.5 μM)

**Q.** How did the pEC50 turn out when `c1ccc(-c2ccnc(N3CCCC3)c2-c2nc3c([nH]2)COCC3)cc1` [Example 44, 2-(4-phenyl-2-(pyrrolidin-1-yl)pyridin-3-yl)-3,4,6,7-tetrahydropyrano[3,4-d]imidazole] was run?
**A.** 5.00 to 6.00

**Q.** And the “Empirical Emax” value?
**A.** +++ (+++ indicates a value from 5.0 up to 7.5 μM)

**Q.** How did the pEC50 turn out when `FC1(F)C2CN(c3nccc(-c4ccccc4)c3-c3nc4c([nH]3)COCC4)CC21` (centres unmarked) [Example 45, 2-(2-(6,6-difluoro-3-azabicyclo[3.1.0]hexan-3-yl)-4-phenylpyridin-3-yl)-3,4,6,7-tetrahydropyrano[3,4-d]imidazole] was run?
**A.** > 6.00

**Q.** What about the “Empirical Emax” value of the same compound?
**A.** +++ (+++ indicates a value from 5.0 up to 7.5 μM)

**Q.** With `N#CC1CCN(c2nccc(-c3ccccc3)c2-c2nc3c([nH]2)COCC3)C1` (centres unmarked) [Example 46] as the compound, how does the pEC50 read?
**A.** 5.00 to 6.00

**Q.** What about the “Empirical Emax” value of the same compound?
**A.** +++ (+++ indicates a value from 5.0 up to 7.5 μM)

**Q.** `FC(F)(F)C1CCN(c2nccc(-c3ccccc3)c2-c2nc3c([nH]2)COCC3)C1` (centres unmarked) [Example 47, 2-(4-phenyl-2-(3-(trifluoromethyl)pyrrolidin-1-yl)pyridin-3-yl)-3,4,6,7-tetrahydropyrano[3,4-d]imidazole] was tested. Which pEC50 did it give?
**A.** 5.00 to 6.00

**Q.** What about the “Empirical Emax” value of the same compound?
**A.** +++ (+++ indicates a value from 5.0 up to 7.5 μM)

**Q.** `F[C@@H]1CN(c2nccc(-c3ccccc3)c2-c2nc3c([nH]2)COCC3)C[C@@H]1F` [Example 48, 2-(2-((3S,4R)-3,4-difluoropyrrolidin-1-yl)-4-phenylpyridin-3-yl)-3,4,6,7-tetrahydropyrano[3,4-d]imidazole] was tested. Which pEC50 did it give?
**A.** 5.00 to 6.00

**Q.** And the “Empirical Emax” value?
**A.** +++ (+++ indicates a value from 5.0 up to 7.5 μM)

**Q.** `FC1(F)CCCN(c2nccc(-c3ccccc3)c2-c2nc3c([nH]2)COCC3)C1` [Example 49, 2-(2-(3,3-difluoropiperidin-1-yl)-4-phenylpyridin-3-yl)-3,4,6,7-tetrahydropyrano[3,4-d]imidazole] was tested. Which pEC50 did it give?
**A.** 4.30 to 5.00

**Q.** What about the “Empirical Emax” value of the same compound?
**A.** ++ (++ indicates a value from 2.0 up to 5.0 μM)

**Q.** `FC1(F)CC2(CN(c3nccc(-c4ccccc4)c3-c3nc4c([nH]3)COCC4)C2)C1` [Example 50, 2-(2-(6,6-difluoro-2-azaspiro[3.3]heptan-2-yl)-4-phenylpyridin-3-yl)-3,4,6,7-tetrahydropyrano[3,4-d]imidazole] was tested. Which pEC50 did it give?
**A.** 4.30 to 5.00

**Q.** What about the “Empirical Emax” value of the same compound?
**A.** ++ (++ indicates a value from 2.0 up to 5.0 μM)

**Q.** What does the source list for `FC(F)(F)C1(CNc2nccc(-c3ccccc3)c2-c2nc3c([nH]2)COCC3)CCC1` [Example 51, 4-phenyl-3-(3,4,6,7-tetrahydropyrano[3,4-d]imidazol-2-yl)-N-((1-(trifluoromethyl)cyclobutyl)methyl)pyridin-2-amine]?
**A.** pEC50: > 6.00; Empirical Emax: + (+ indicates a value less than 2.0 μM)

**Q.** How did the pEC50 turn out when `CC1(C)Cc2nc(-c3c(-c4ccccc4)ccnc3N3CCC(F)(F)C3)[nH]c2CO1` [Example 52, 2-(2-(3,3-difluoropyrrolidin-1-yl)-4-phenylpyridin-3-yl)-6,6-dimethyl-3,4,6,7-tetrahydropyrano[3,4-d]imidazole] was run?
**A.** > 6.00

**Q.** And the “Empirical Emax” value?
**A.** +++ (+++ indicates a value from 5.0 up to 7.5 μM)

**Q.** Which results are given for `FC1(F)CCN(c2nccc(-c3ccccc3)c2-c2nc3c([nH]2)COC2(CCC2)C3)C1` [Example 53, 2′-(2-(3,3-difluoropyrrolidin-1-yl)-4-phenylpyridin-3-yl)-4′,7′-dihydro-3′H-spiro[cyclobutane-1,6′-pyrano[3,4-d]imidazole]]?
**A.** pEC50: 5.00 to 6.00; Empirical Emax: ++ (++ indicates a value from 2.0 up to 5.0 μM)
